{"source": "paper PMC8102479", "about": "“Structural and mechanistic insights into the bifunctional HISN2 enzyme catalyzing the second and third steps of histidine biosynthesis in plants” (Scientific Reports, 2021)", "key": {"[1]": {"molecular_target": "HISN2 enzyme from Medicago truncatula (MtHISN2), construct N-truncated at Val49 (Medicago truncatula)", "assay": "SEC; HiLoad Superdex 200 16/60; 25 mM Hepes-NaOH pH 7.5, 100 mM KCl, 50 mM NaCl, 100 uM ZnCl2, 1 mM TCEP; elution profile not shown"}, "MtHISN2 [2]": {"molecular_target": "T1, MtHISN2 (Medicago truncatula, UniProt A0A072U2X9, H143E)", "T1 construct": "gene MTR_7g084480; N-truncated at Val49 (chloroplast transit peptide removed), residues 49-283, N-terminal Ser-Asn-Ala linker left, His6-tag cleaved with TEV; E. coli BL21 Gold; both PRA-CH and PRA-PH domains", "T1 sequence (A0A072U2X9 entry or part of it H143E)": "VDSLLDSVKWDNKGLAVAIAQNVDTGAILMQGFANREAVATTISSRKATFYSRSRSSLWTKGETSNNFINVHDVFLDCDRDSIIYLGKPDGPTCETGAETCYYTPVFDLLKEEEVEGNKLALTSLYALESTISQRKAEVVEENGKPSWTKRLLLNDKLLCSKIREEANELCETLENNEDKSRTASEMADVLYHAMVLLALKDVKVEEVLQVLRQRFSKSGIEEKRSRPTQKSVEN", "assay": "isothermal titration calorimetry", "format": "binding"}, "MtHISN2 [3]": {"molecular_target": "T2, MtHISN2 (Medicago truncatula, UniProt A0A072U2X9)", "T2 construct": "gene MTR_7g084480; N-truncated at Val49 (chloroplast transit peptide removed), residues 49-283, N-terminal Ser-Asn-Ala linker left, His6-tag cleaved with TEV; E. coli BL21 Gold; both PRA-CH and PRA-PH domains", "T2 sequence (A0A072U2X9 entry or part of it)": "as the sequence (A0A072U2X9 entry or part of it H143E) above, with E95H counted along it", "assay": "ProFAR formation monitored at […] nm", "format": "biochemical"}, "MtHISN2 [4]": {"molecular_target": "T2, MtHISN2", "assay": "isothermal titration calorimetry", "format": "binding"}, "MtHISN2 [5]": {"molecular_target": "T3, MtHISN2 (Medicago truncatula, UniProt A0A072U2X9, K109A)", "T3 construct": "gene MTR_7g084480; N-truncated at Val49 (chloroplast transit peptide removed), residues 49-283, N-terminal Ser-Asn-Ala linker left, His6-tag cleaved with TEV; E. coli BL21 Gold; both PRA-CH and PRA-PH domains", "T3 sequence (A0A072U2X9 entry or part of it K109A)": "as the sequence (A0A072U2X9 entry or part of it H143E) above, with K61A, E95H counted along it", "assay": "isothermal titration calorimetry", "format": "binding", "excerpt": "(§1) isothermal titration calorimetry on MtHISN2 | Four mutants within the PRA-CH domain (K109A, T112V, S113A, and H143E)"}, "MtHISN2 [6]": {"molecular_target": "T4, MtHISN2 (Medicago truncatula, UniProt A0A072U2X9, S113A)", "T4 construct": "gene MTR_7g084480; N-truncated at Val49 (chloroplast transit peptide removed), residues 49-283, N-terminal Ser-Asn-Ala linker left, His6-tag cleaved with TEV; E. coli BL21 Gold; both PRA-CH and PRA-PH domains", "T4 sequence (A0A072U2X9 entry or part of it S113A)": "as the sequence (A0A072U2X9 entry or part of it H143E) above, with S65A, E95H counted along it", "assay": "isothermal titration calorimetry", "format": "binding", "excerpt": "as §1"}, "MtHISN2 [7]": {"molecular_target": "T5, MtHISN2 (Medicago truncatula, UniProt A0A072U2X9, T112V)", "T5 construct": "gene MTR_7g084480; N-truncated at Val49 (chloroplast transit peptide removed), residues 49-283, N-terminal Ser-Asn-Ala linker left, His6-tag cleaved with TEV; E. coli BL21 Gold; both PRA-CH and PRA-PH domains", "T5 sequence (A0A072U2X9 entry or part of it T112V)": "as the sequence (A0A072U2X9 entry or part of it H143E) above, with T64V, E95H counted along it", "assay": "isothermal titration calorimetry", "format": "binding", "excerpt": "as §1"}, "MtHISN2 [8]": {"molecular_target": "T6, MtHISN2 (Medicago truncatula, UniProt A0A072U2X9, T197V)", "T6 construct": "gene MTR_7g084480; N-truncated at Val49 (chloroplast transit peptide removed), residues 49-283, N-terminal Ser-Asn-Ala linker left, His6-tag cleaved with TEV; E. coli BL21 Gold; both PRA-CH and PRA-PH domains", "T6 sequence (A0A072U2X9 entry or part of it T197V)": "as the sequence (A0A072U2X9 entry or part of it H143E) above, with E95H, T149V counted along it", "assay": "isothermal titration calorimetry", "format": "binding", "protocol": "(§2) isothermal titration calorimetry on MtHISN2 | three within the PRA-PH domain (R183E, T197V, and Y240T) were tested"}, "MtHISN2 [9]": {"molecular_target": "T7, MtHISN2 (Medicago truncatula, UniProt A0A072U2X9, R183E)", "T7 construct": "gene MTR_7g084480; N-truncated at Val49 (chloroplast transit peptide removed), residues 49-283, N-terminal Ser-Asn-Ala linker left, His6-tag cleaved with TEV; E. coli BL21 Gold; both PRA-CH and PRA-PH domains", "T7 sequence (A0A072U2X9 entry or part of it R183E)": "as the sequence (A0A072U2X9 entry or part of it H143E) above, with E95H, R135E counted along it", "assay": "isothermal titration calorimetry", "format": "binding", "protocol": "as §2"}, "MtHISN2 [10]": {"molecular_target": "T8, MtHISN2 (Medicago truncatula, UniProt A0A072U2X9, Y240T)", "T8 construct": "gene MTR_7g084480; N-truncated at Val49 (chloroplast transit peptide removed), residues 49-283, N-terminal Ser-Asn-Ala linker left, His6-tag cleaved with TEV; E. coli BL21 Gold; both PRA-CH and PRA-PH domains", "T8 sequence (A0A072U2X9 entry or part of it Y240T)": "as the sequence (A0A072U2X9 entry or part of it H143E) above, with E95H, Y192T counted along it", "assay": "isothermal titration calorimetry", "format": "binding", "protocol": "as §2"}}, "data": [{"compound": "HISN2 enzyme from Medicago truncatula (MtHISN2), construct N-truncated at Val49", "values": [{"measurement": "stoichiometry N", "setting": "[1]", "value": 2}]}, {"compound": "Nc1ncnc2c1ncn2[C@@H]1O[C@H](COP(=O)(O)O)[C@@H](O)[C@H]1O", "note": "[AMP]", "values": [{"measurement": "Kd", "setting": "MtHISN2 [2]", "value": 68, "unit": "µM"}, {"measurement": "inhibition at 100 µM", "setting": "MtHISN2 [3]", "value": "> 60", "unit": "%"}, {"measurement": "Kd", "setting": "MtHISN2 [4]", "value": "47 ± 6", "unit": "µM"}, {"measurement": "Kd", "setting": "MtHISN2 [5]", "value": "71 ± 18", "unit": "µM"}, {"measurement": "Kd", "setting": "MtHISN2 [6]", "value": "64 ± 12", "unit": "µM"}, {"measurement": "Kd", "setting": "MtHISN2 [7]", "value": "75 ± 8", "unit": "µM"}, {"measurement": "Kd", "setting": "MtHISN2 [8]", "value": "29 ± 3", "unit": "µM"}, {"measurement": "Kd", "setting": "MtHISN2 [9]", "value": "31 ± 3", "unit": "µM"}, {"measurement": "Kd", "setting": "MtHISN2 [10]", "value": "52 ± 9", "unit": "µM"}]}]}
